Experimental data as given in patent US6949528B1, “Compositions containing lysophosphatidic acids which inhibit apoptosis and uses thereof” (priority 1998, dated 2005).

Test system: C3H/10T1/2 cells
Experiment: Anti-apoptotic activity assay: serum deprivation of C3H/10T1/2 cells
Type: cell-based
Conditions: for Concentration for Max Effect / Maximum effect relative to 18:1 LPA / Emax: serum-deprived C3H/10T1/2 cells, 24 hours of treatment; for Emax: Mus musculus, read-out: Maximum effect relative to 18:1 LPA; for Maximum effect relative to 18:1 LPA: Toxic / lowest concentration at which cytotoxic effects were observed (column Concentration for Max Effect): C3H/10T1/2 cells; for lowest concentration at which cytotoxic effects were observed (column Concentration for Max Effect): compounds exhibiting toxicity
Description: In order to determine the […] of the claimed invention, the following method of analysis was used. The cell assay is described in detail in U.S. Pat. Nos. 5,637,486, 5,620,888, and 5,681,703, and Tomei et al. (1993) Proc Natl. Aci. 90:853-857. Briefly, mouse fibroblast C3H/10T1/2 cells (clone 8) were obtained from ATCC (Rockville, Md.) and were maintained in exponential growth phase in which the cell cycle is randomly distributed and no cells are arrested in G0, and in quiescence. Exponential growth phase was assured by seeding at 2000 cells per 1 ml (5 ml for 60 mm culture plate) five days prior to the beginning of the experiment. Assays were performed on cells only up to passage 15. At T=0, cultures were transferred to serum-free medium, as an appropriate stimulus, and seed extracts were added. Controls included 10^−7 and 5×10^−8 M 12-O-tetradecanoyl phorbol-13-acetate (TPA) to ensure the responsiveness of the cell culture. The samples were added to serum free medium and sterile filtered prior to addition to the cultures. Assays were performed in triplicate or quadruplicate. Analyses of the cell responses were made between 18 and 28 hours of serum deprivation. Two assays were performed on each cell culture plate consisting of differential cell counts.
1. All non-adherent or loosely adherent cells were removed from the culture dish and counted by appropriate techniques, typically counting by electronic particle counting instrument. These are the apoptotic cells, the serum deprived released cells (SDR), released by the action of cultivation in serum-free medium. Approximately 95% of these released cells are apoptotic as shown by both ultrastructure analysis and DNA fragmentation analysis.
2. The remaining adherent cells (ADH) were exposed to a buffered, typically pH 7.3, balanced salt solution such as a Hanks Balanced Salt Solution without calcium and magnesium salts containing 0.05% trypsin and 0.53 mM ethylene diaminetetraacetic acid (EDTA). Each culture was incubated at either room temperature or 37(C on a rocking platform to ensure uniform distribution of the trypsin reagent over the culture surface. After a standardized period of time, typically 10 minutes, the released cells were removed from each culture dish and measured by the same means as described above, typically electronic particle counting. This ADH cell count is comprised of both trypsin resistant and trypsin sensitive cells as described in U.S. Pat. Nos. 5,637,486, 5,620,888, and 5,681,703.
Anti-apoptotic activity is expressed in the following examples as the calculated concentration of material ((g/ml of media) required to save 50% of the cells released on serum free treatment.
The ability of 18:1-LPA an other LPAs to protect serum-starved cells from apoptotic death was measured using the C3H/10T1/2 cell assay, performed as described in Example 2. The effect of various compounds on the ability of lysophosphatidic acid to protect serum-starved cells from apoptotic death was also measured. Log phase cells were seeded in 60 mm Petri dishes at 175-350 cells per cm2 and maintained in Basal Medium Eagle (BME) supplemented with 10% Heat Inactivated Fetal Bovine Serum (HIFBS). On day 3 the cells were given fresh media. Treatment began on day 5 when the media containing serum was removed and replaced with the LPA mixture to be tested. After 24 hours of treatment, day 6, serum deprived released (SDR) cells (the […] cell population) and adherent (ADH) cells were separated and counted using an electronic cell counter (Coulter Corporation, Hialea, Fla.). […]

| Molecule | Concentration for Max Effect [µM] | Maximum effect relative to 18:1 LPA [%] | also measured |
| --- | --- | --- | --- |
| CCCCCCCCCC(=O)OC[C@@H](O)COP(=O)(O)O [10:0 LPA, reference compound] | 30 | 30 | – |
| lysophosphatidyl serine [LPS, reference compound] | – | – | activity relative to 18:1-LPA (on a molar basis, FIG. 4): approximately 50% |
| CCCCCCCC/C=C\CCCCCCCCOCC(COP(=O)(O)O)OC (racemic) [Compound 24, 3-O-Oleyl-2-O-methyl-rac-glycero-1-phosphate] | 10 | – | Emax: 100% |
| CCCCCCCC/C=C\CCCCCCCC(=O)OCC(Br)COP(=O)(O)O (racemic) [Compound 37, 3-O-Oleoyl-2-deoxy-2-bromo-rac-glycero-1-phosphate] | 30 | 75 | – |
| Dimethyl 3-amino-N-oleoyl-propylphosphate [Compound 53] | – | – | Maximum effect relative to 18:1 LPA: Toxic: Toxic; lowest concentration at which cytotoxic effects were observed (column Concentration for Max Effect): 100 µM |
| Phosphatidylserine [Phosphatidylserine (PS)] | – | – | toxicity of lipid alone (PS alone, FIG. 2): slightly toxic |
| CCCCCCCC/C=C\CCCCCCCC(=O)NCCOP(=O)(OC)OC [Compound 59, Dimethyl 2-amino-2-N-oleoyl-ethylphopshate] | – | – | Maximum effect relative to 18:1 LPA: Toxic: Toxic; lowest concentration at which cytotoxic effects were observed (column Concentration for Max Effect): 30 µM |
| CCCCCCCCCCCCCCOCC1CO1 (stereo not shown) [Compound 8, 1-O-Tetradecyl-glycidol] | – | – | Maximum effect relative to 18:1 LPA: Toxic: Toxic; lowest concentration at which cytotoxic effects were observed (column Concentration for Max Effect): 30 µM |
| CCCCCCCC/C=C\CCCCCCCCCCCCOP(=O)(O)O [Compound 71, Erucyl phosphate] | 100 | 76 | – |
| CCCCCCCC/C=C\CCCCCCCC(=O)NC(C)COP(=O)(O)O (stereo not shown) [Compound 61, 2-Amino-2-N-oleoyl-propyl phosphate] | 30 | 70 | – |
| phosphatidyl choline [PC] | – | – | cells survived (lipids alone added to culture medium, FIG. 3): about 25% |
| CCCCCCCCCCCCCC(=O)OC[C@@H](O)COP(=O)(O)O [14:0 LPA, reference compound] | 30 | 80 | – |
| CCCCCCCCCCCCCCCCCC(=O)OCC(O)COP(=O)(O)O (stereo not shown) [stearyl-LPA, reference compound] | – | – | cells protected (5 (M, FIG. 6)): 63%; cells protected (15 (M, FIG. 6)): 65% |
| CCCCCCCC/C=C\CCCCCCCC(=O)OCC(COP(=O)(O)O)OC (racemic) [Compound 46, 3-O-Oleoyl-2-O-methyl-rac-glycero-1-phosphate] | 30 | – | Emax: 75% |
| CCCCCCCC/C=C\CCCCCCCCOCC(COP(=O)(OC)OC)OC (racemic) [Compound 23, Dimethyl 1-O-oleyl-2-O-methyl-rac-glycero-1-phosphate] | 30 | 17 | – |
| CCCCCCCC/C=C\CCCCCCCCOCC(COP(O)(=S)OCC(COCCCCCCCC/C=C\CCCCCCCC)OC)OC (racemic) [Compound 80, Bis(3-O-oleyl-2-O-methyl-rac-glyceryl)thiophosphate] | 3 | 100 | – |
| CCCCCCCCCCCCCCOCC(O)COP(=O)(OC)OC (racemic) [Compound 3, Dimethyl 3-O-tetradecyl-rac-glycero-1-phosphate] | – | – | Maximum effect relative to 18:1 LPA: Toxic: Toxic; lowest concentration at which cytotoxic effects were observed (column Concentration for Max Effect): 30 µM |
